The values that follow come from US5474988A, “5-phenylpyrrolo-1,4-benzoxazine and 5-phenylpyrrolo-1,4-benzothiazine compounds, process and intermediates for their production and pharmaceutical compositions containing them” (Kali-Chemie Pharma GmbH, priority 1993, dated 1995).

In the first assay the target is T1, 5-lipoxygenase (Cavia porcellus, UniProt A0A286X958).
T1 construct: The 5-LO was concentrated in a known manner from PMNs of male Dunkin-Hartley guinea-pigs; endogenous in cells; host or cells: peritoneal PMNs of male Dunkin-Hartley guinea-pigs, homogenized; 10,000 x g supernatant used as enzyme solution
T1 sequence (A0A286X958 1-674): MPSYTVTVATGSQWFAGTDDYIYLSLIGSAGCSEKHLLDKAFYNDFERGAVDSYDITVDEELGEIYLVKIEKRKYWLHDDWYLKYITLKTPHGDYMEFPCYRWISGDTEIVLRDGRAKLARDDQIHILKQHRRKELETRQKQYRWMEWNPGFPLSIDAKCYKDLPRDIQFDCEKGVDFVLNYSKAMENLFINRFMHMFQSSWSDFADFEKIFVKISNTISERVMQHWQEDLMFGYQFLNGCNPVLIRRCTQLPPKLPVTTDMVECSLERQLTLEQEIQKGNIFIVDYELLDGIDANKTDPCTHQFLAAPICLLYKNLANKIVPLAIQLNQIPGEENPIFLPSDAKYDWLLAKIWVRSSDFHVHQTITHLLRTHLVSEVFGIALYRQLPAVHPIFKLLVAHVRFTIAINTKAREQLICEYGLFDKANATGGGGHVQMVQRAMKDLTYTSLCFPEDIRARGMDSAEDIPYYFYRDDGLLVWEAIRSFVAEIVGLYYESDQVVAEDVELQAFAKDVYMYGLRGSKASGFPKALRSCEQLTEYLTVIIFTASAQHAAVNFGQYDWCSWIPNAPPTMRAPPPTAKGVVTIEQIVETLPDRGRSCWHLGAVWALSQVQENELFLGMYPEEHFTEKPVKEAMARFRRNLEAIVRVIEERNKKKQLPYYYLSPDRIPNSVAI
Kind of assay: inhibitory activity on free 5-lipoxygenase concentrated from peritoneal PMNs of the guinea-pig (5-HETE formation). The following applies: 10^-5 mole/liter; guinea-pig 5-LO, 37° C.; read-out: In vitro % inhibitory activity on 5-HETE formation caused by free 5-LO. In kind it is biochemical. The text has this: 4b. In vitro determination of inhibitory activity on 5-lipoxygenase concentrated from peritoneal PMNs of the guinea-pig.
An inhibition of 5-lipoxygenase can be caused by direct inhibitory action of the substances on the enzyme and/or by interference with the activation of the enzyme. While in test 4a the 5-lipoxygenase inhibition of the substances was investigated in rat PMN cells, in test 4b the inhibitory activity of the substances was investigated on free 5-LO concentrated from guinea-pig PMN cells according to the method of D. Aharony et al., J. Biol. Chem. 261 (1986), 11512-11519 (1986).
The 5-LO was concentrated in a known manner from PMNs of male Dunkin-Hartley guinea-pigs (body weight 400 to 500 g) as follows. 10 ml of a solution containing 27.9 g/l of sodium thioglycolate were injected i.p. into the animals in order to induce the PMN invasion as a result of this inflammatory stimulus. After 22 hours, the animals were sacrificed by lethal ether anaesthesia. 70 ml of HBSS without Ca^++ and Mg^++ ions and containing 0.2% by weight of sodium citrate were then injected into the abdominal cavity. The cell suspension (>80% of the cells are PMNs) was withdrawn from the abdominal cavity, filtered through a cheese-making filter cloth, and washed twice with a 50 mM potassium phosphate buffer solution of pH 7.4, which contained 0.5 mM ethylenediaminetetraacetic acid, 1% by weight of gelatine and 20 μM indomethacin. The cells were resuspended, and the PMN suspension containing 10^8 cells/ml was homogenized three times for 15 seconds each in an ice-bath in a homogenizer of the Labsonic™ type set at high speed. The resulting suspension was centrifuged at 4° C. (15 minutes at 10,000×g). The supernatant liquid was used for the investigation as a solution of the free 5-LO enzyme.
The experiments were carried out at 37° C. for 7 minutes using 0.625 ml samples of this enzyme solution. For the experiments, the enzyme solution (=equivalent of 2.5×10^7 cells), 0.5 mM glutathione, 1 mM ATP and 0.3 mM calcium chloride were added to test tubes. […] of the test substance were added to the samples dissolved in sufficient dimethylformamide such that the dimethylformamide concentration in each test tube is 0.5%. Only dimethylformamide was added to the control samples. After 2 minutes, the formation of 5-(S)-hydroxy-6,8,11,14-eicosatetraenoic acid (=[…]) was initiated by addition 10 μM arachidonic acid. After 5 minutes, the reaction was terminated by addition of 0.625 ml of a mixture of methyl acetate/methanol/0.2 m citric acid 15:2:0.5 v/v/v. 5-HETE was extracted twice using this solvent mixture. The 5-HETE-containing phases were combined and evaporated to dryness under a nitrogen atmosphere. The residue was taken up in a mixture of methanol/water/acetic acid 75:21:0.02 v/v/v having a pH of 5.7, and the solution was investigated for its content of 5-HETE by means of reverse phase HPLC. To accomplish this, a […] silanized silica gel column (Hichrom® ODS2, 250×4.6 mm) was employed as the adsorbent and a mixture of methanol/water/acetic acid 75:21:0.02 adjusted to pH 5.7 with ammonia and having a flow rate of 1 ml/min was used as the eluent. 5-HETE, which was eluted as a single peak after 20 minutes, was identified by comparison with standard solutions eluted at the same time and determined using a UV light detector at a wavelength of 235 nm. Quantitative determination was carried out by comparison of the peak area obtained with peak areas occurring in the calibrated standard solutions. From the 5-HETE contents of the samples determined, the inhibitory activity of the test substances was calculated in % inhibition of 5-HETE synthesis in comparison to the control samples containing no test substance.
As to `Cc1ccnc(N2CCN(C(=O)CC3Cn4c(-c5ccc(O)cc5)c(C)c5cccc(c54)O3)CC2)c1` (centres unmarked) [Example 17], the inhibition at 10 µM is 100%.
On the same count and under the same terms, next, `Cc1ccnc(N2CCN(CCCCC3Cn4c(-c5cc(C)c(O)c(C)c5)c(C)c5cccc(c54)O3)CC2)c1` (centres unmarked) [Example 18]: 100%; `Cc1ccnc(N2CCN(CCC3Cn4c(-c5ccc(O)cc5)c(C)c5c(F)ccc(c54)O3)CC2)c1` (centres unmarked) [Example 22]: 97%.
Still for that read-out and setting: under `Cc1ccnc(N2CCN(C(=O)CCC3Cn4c(-c5cc(C)c(O)c(C)c5)c(C)c5c(F)ccc(c54)O3)CC2)c1` (centres unmarked) [Example 54] stands 63%.

For the next assay, the system named is P.A.F.-induced aggregation of blood platelets. Kind of assay: anti-P.A.F. action in vitro (P.A.F.-induced platelet aggregation). In kind it is cell-based. The following applies: Oryctolagus cuniculus, 10^-5 mole/liter, read-out: Anti-P.A.F. activity in vitro, % inhibition of the P.A.F.-induced aggregation of blood platelets from rabbit blood. The text has this:
3. Determination of the anti-P.A.F. action in vitro.
P.A.F. (=Platelet Activating Factor=Platelet Aggregation Factor) is a phospholipid mediator which has a multiplicity of actions. The activation of blood platelet aggregation results in the induction of long-lasting bronchoconstrictions and hyperreactivity of the respiratory passages.
In this test, the effect of the test substances on platelet aggregation induced by addition of P.A.F. in a platelet suspension obtained from rabbit blood was investigated according to the method described by Mikashima et al. (Jap. J. Pharmacol. 44 (1987) 387-391).
A suspension of platelets obtained from rabbit blood was used which contains 4×10^9 platelets/ml in a modified Tyrode buffer solution (=Tyrode solution with the addition of 1.3 mM/l of CaCl2 and 2.5 g/l of gelatine) adjusted to pH 7.4. Tyrode solution is an aqueous solution containing, per liter, 136.9 mmole of NaCl, 2.68 mmole of KCl, 2.31 mmole of CaCl2, 1.0 mmole of MgCl2, 11.9 mmole of NaHCO3, 1.45 mmole of NaH2 PO4 and 5.55 mmole of glucose. The platelets were concentrated from 10 ml blood samples of three rabbits (New Zealand hybrids, body weight 3-4 kg) in each case. To accomplish this, the blood samples were treated with ethylenediaminetetraacetic acid and washed according to the method of Artley et al. (Brit. J. Haematol. 19 (1970), 7-17). A platelet-rich plasma was first separated by centrifugation (20 minutes at 400×g). The platelets were separated from the plasma by repeated centrifugation for 15 minutes at 1400×g.After the centrifugation, the blood platelets remaining in the sediment were resuspended in a Tyrode buffer solution (but without calcium). 0.4 mmole of lysine acetylsalicylate was then added, and the blood platelets were sedimented again after 15 minutes. The sediment was resuspended in the aforementioned modified Tyrode buffer solution, and the number of platelets in the suspension obtained was adjusted to the desired content.
A 40×10^-9 molar P.A.F. solution was employed as a reagent. This solution was prepared from a 1.8×10^-3 molar stock solution in chloroform. To do this, a 10 μl sample of the stock solution was evaporated to dryness and dissolved again in 180 μl of the modified Tyrode buffer solution, to which 0.25% of lipid-free bovine serum albumin had been added. 10^-5 molar working solutions were then prepared from this and stored frozen. Samples of these solutions were appropriately diluted for tests.
In order to carry out the test, 50 μl of the blood platelet suspension and 10 μl of a 40×10^-5 molar solution of the compound to be investigated were added to […] of the modified Tyrode buffer solution with stirring (1000 rpm) in an aggregation tube provided with a small magnetic stirrer. This corresponded to a final test substance concentration of 10^-5 mole/l. After a preincubation time of 90 seconds, 10 μl of the P.A.F. preparation were added. For 4-5 minutes, the aggregation occurring in the aggregation tube was measured by means of a computerized aggregometer.
The aggregation occurring in the test tubes containing only the platelet suspension is rated as 0%. The aggregation occurring in the test tubes containing platelet suspension and P.A.F. preparation, in which a P.A.F.-induced increase in platelet aggregation takes place, is rated as 100%. The aggregation still occurring after addition of the test substances is measured, and from this the inhibition of the P.A.F.-inducedincrease in aggregation which takes place is calculated in %.
In the case of `Cc1ccnc(N2CCN(C(=O)CC3Cn4c(-c5ccc(O)cc5)c(C)c5cccc(c54)O3)CC2)c1` (centres unmarked) [Example 17], the inhibition at 10 µM is 99%.
On to `Cc1ccnc(N2CCN(CCCCC3Cn4c(-c5cc(C)c(O)c(C)c5)c(C)c5cccc(c54)O3)CC2)c1` (centres unmarked) [Example 18], for which the inhibition at 10 µM amounted to 78%.
On the same count and under the same terms, next, `Cc1ccnc(N2CCN(CCC3Cn4c(-c5ccc(O)cc5)c(C)c5c(F)ccc(c54)O3)CC2)c1` (centres unmarked) [Example 22]: 84%.
On the same count and under the same terms, under `Cc1ccnc(N2CCN(C(=O)CCC3Cn4c(-c5cc(C)c(O)c(C)c5)c(C)c5c(F)ccc(c54)O3)CC2)c1` (centres unmarked) [Example 54] stands 65%.
